Values of other authors, collected in patent publication US20040210280A1, “Plaster-type chip systems for thermodynamic control of topical dermal and transdermal systems” (BIONICS PHARMA GmbH, priority 2002, published 2004).

How the values were obtained:
[1] = in vivo
[2] = in vivo; remark: listed apart in the source

Compound	rate of disappearance from the subcutaneous tissue [1]	concentrations of nitroglycerine in the plasma [2]	plasma concentrations of nitroglycerine [2]
125I-labelled insulin: previously injected 125I-labelled insulin	increased rate of disappearance		
O=[N+]([O-])OCC(CO[N+](=O)[O-])O[N+](=O)[O-] [nitroglycerine]		increased by two to three times	decrease
